Structure (SMILES)	melting point
CCCCCCCc1c(C(=O)OCC)[nH]c(C)c1C	68 to 69 °C
CCN(CC)CC#CC(=O)Nc1ccc2ncc(C#N)c(Nc3ccc(F)c(Cl)c3)c2c1	117 to 120 °C
CN(C(=O)C(C)(C)NC(=O)OCc1ccccc1)c1ccc([N+](=O)[O-])cc1C(=O)c1ccccc1F	168 to 169 °C
CC(C)CC(NC(=O)C(Cc1c[nH]cn1)NC(=O)C(CC(=O)NCCc1ccccc1)Cc1cccc2ccccc12)C(O)CNCc1ccccc1 (mixture of isomers)	108 to 113 °C
N#CC(=Cc1ccc[nH]1)C(=O)O	213 °C
O=c1[nH]cnc2cc3c(cc12)OCCO3	275 °C
Cc1ccc(NC(=O)Nc2cnc3ccc(Cl)cc3c2-c2ccccc2)c(C)c1	230 to 231 °C
O=C(O)c1ccccc1OC(F)(F)C(F)F	158 to 160 °C
COc1ccc(C=C(C(=O)C2CC2)C(=O)C2CC2)cc1	60.5 to 61.5 °C
O=C(O)/C=C/C=C(c1cccc([N+](=O)[O-])c1)c1cccc([N+](=O)[O-])c1	234 to 237 °C
CCOC(=O)/C=C(\C)c1ccc(C2COc3c(C)c(C)c(NC(=O)CC(C)(C)C)c(C)c32)cc1 (centres undefined)	179 to 180 °C
CNC(=O)N1N=C(c2ccc(N)cc2)c2cc(Cl)c(Cl)cc2CC1C (centres undefined)	224 to 225 °C
COc1ccc2c(c1)c1c3c(c(-c4ccccc4)cc1n2CCCO)C(=O)NC3=O	241 to 243 °C
O=[N+]([O-])c1ccccc1S(=O)(=O)NOCc1ccccc1	148 to 151 °C
COc1cc(C(=O)c2nc(N)c3ccccn23)ccc1[N+](=O)[O-]	214 °C
CCOC(=O)CCn1c(=O)c(=O)[nH]c2cc(C(F)(F)F)c(N)cc21	262 to 263 °C
CC(=O)NCC(C)n1nnnc1S (centres undefined)	176 to 178 °C
CCOC(=O)c1ccc2cccc([N+](=O)[O-])c2c1	120 °C
CC(C)(C)C(=O)C(Br)Oc1ccc(S(=O)(=O)c2ccccc2)cc1 (centres undefined)	157 to 162 °C
O=C1c2ccccc2C(=O)N1c1ccc(N2C(=O)c3ccccc3C2=O)c(O)c1	> 300 °C
O=C(NOC1CCCCO1)c1ccc(-c2ccc3ncnc(Nc4ccc(OCc5cccc(F)c5)c(Cl)c4)c3c2)s1 (centres undefined)	250 °C
O=[N+]([O-])c1ccc(NCCCn2ccnc2)c(F)c1	144 °C
Cc1cc2c(cc1C)OCC(NNc1ncnc3c1ncn3C1OC(CO)C(O)C1O)C2 (centres undefined)	170 to 172 °C
O=S(=O)(c1ccc(O)cc1)c1ccc(-c2ccccc2)cc1	246 to 248 °C
CNc1nc(SC)ncc1C#N	189 to 190 °C

Structure (SMILES)	melting point
Cc1cc2c(cc1C)C(=O)C(C#N)C2=O	209 to 210 °C
O=C1COc2cc3[nH]c(C(=O)O)cc3cc2N1	231 to 237 °C
CC(C)c1cccc(C(C)C)c1OC(=O)NP(=O)(Oc1ccccc1)Oc1ccccc1	132 to 135 °C
CCOC(=O)C1CCc2scnc2C1=O (centres undefined)	81 to 82 °C
O=c1ncc(Cl)cn1CC(O)CO (centres undefined)	136 to 138 °C
COc1cc2c(cc1OC)CN(c1nc(N3CCc4cc(OC)c(OC)cc4C3)nc(N3CCc4cc(OC)c(OC)cc4C3)n1)CC2	166 to 169 °C
CC(c1cc(F)ccc1Oc1nc2ccc(-n3cc(-c4ccccc4)nn3)cc2cc1Cc1ccccc1)n1ccnc1 (centres undefined)	118 to 120 °C
O=C(CCc1ccccc1)Nc1ccc(CN2C(=O)[C@H]3CCC[C@H]3N(C(=O)CN3C(=O)c4ccccc4C3=O)c3ccccc32)cc1 (relative stereo)	222 °C
CN(NC(=O)OCc1ccccc1)C(=O)NCC(F)F	79 to 82 °C
CC(C)c1cn(C(C)(C)C(=O)N(C)C)nc1-c1ccccc1	80.5 to 82.5 °C
COC1=C(OC)C(=O)C2=C(CC(CCCOc3ccc(C(=O)N(C)C)cc3)C2)C1=O	100 to 102 °C
CC(C)CC1(C(CCN2C(=O)c3ccc([N+](=O)[O-])cc3C2=O)C(=O)NO)CCN(CCc2ccccc2)C1=O (centres undefined)	161 to 162 °C
Cc1c(Cl)cccc1N1C(=O)CN(c2ccccc2)C1=S	154 to 156 °C
CCOC(=O)CCCOc1ccc(N2CCN(c3ccncc3)CC2)cc1	84 to 85 °C
O=C1N(Cc2noc(C3CC3)n2)c2ccccc2C12COc1cc3c(cc12)OCO3 (centres undefined)	136 to 137 °C
CN(C)C(=O)N(C(=O)Nc1ccccc1)c1ccccc1	105 to 107 °C
CN=C(NCCCc1nc2cc(C3=NNC(=O)CC3C)ccc2[nH]1)NC(=O)c1ccccc1 (centres undefined)	270 °C
Cc1c(Br)c(=O)n(C2CCCC2)c2nc(Nc3ccc(N4CCN(C(=O)OC(C)(C)C)CC4)cn3)ncc12	> 250 °C
CCC(=NNC(=O)c1ccccc1)c1cccnc1	169 °C
Cc1nc(-c2ccc(C(=O)N3CCN(S(=O)(=O)c4ccc5cc(Br)ccc5c4)CC3)cc2)c[nH]1	215 to 216 °C
CNC(=O)c1n[nH]cc1NC(=O)c1ccccn1	248 to 249 °C
CCc1nnc(-c2ccc(C)c(-c3ccc(F)cc3)n2)nc1CC	108 °C
O=C(Cn1nnnc1S)NO	105 to 107 °C
CC(=O)Nc1cc2c(cc1[N+](=O)[O-])OC(C)(C)C1OC21 (centres undefined)	156 to 158 °C
CCNC(=O)C[C@@H]1N=C(c2ccc(Cl)cc2)c2cc(OC)ccc2-n2c(C)nnc21	> 140 °C

Structure (SMILES)	melting point
N#Cc1ccc(-n2c(=O)cc(C(F)(F)F)n(N)c2=O)cc1O	> 230 °C
CN(C)Cc1cccc(CSCCNC2=NS(=O)N=C2N)c1 (centres undefined)	122 to 125 °C
COC(=O)C12OC1(Cc1ccc(Cl)cc1)CCC2(C)C (centres undefined)	86 to 87 °C
CCCCCCCC(=O)NCc1cccc(-c2ccc(CCC(=O)O)cc2)c1	124 to 125 °C
O=C(C=C1OC(=O)c2ccccc21)c1ccccc1	105 °C
Cc1nc(C)c(C(O)=C(C#N)c2nn(-c3ccccc3)nc2C)s1	117 to 118 °C
Cc1cc([N+](=O)[O-])cnc1Oc1ccc(Cl)c(C(F)(F)F)c1	95 to 97 °C
CCOC(=O)c1csc(-c2ccc3nc(CC(C)C)c(CN)c(-c4ccc(C)cc4)c3c2)n1	150 to 152 °C
N#Cc1c(N)nc2ccc(N3CCOCC3)cc2c1NCc1ccccc1	202 °C
N#Cc1ccc(N2CCC(=O)CC2)cc1	100 to 101 °C
COc1ccc2c(ccn3c(C)nnc23)c1	183 to 184 °C
CN(c1cccc2cc(C3=NCC4(CCN(Cc5nccn5C)CC4)S3)[nH]c12)S(=O)(=O)c1cccs1	103 °C
Cn1cc(C(=O)Nc2ccccc2-c2cc(F)ccc2F)c(C(F)(F)F)n1	110 to 112 °C
N#CC[C@@H]1CC[C@@H]2CN(c3noc4ccccc34)CCN2C1 (relative stereo)	184 to 186 °C
C#Cc1cc(CC)c(-c2c(O)c(C)nn(C)c2=O)c(CC)c1	216 to 217 °C
OC(CCCl)COc1ccc(Br)cc1 (centres undefined)	75 to 78 °C
OC(=Cc1ccccc1)C(O)C(O)C(O)C(O)C(O)=Cc1ccccc1 (centres undefined)	210 °C
NC(=O)c1ccc(-c2ccccc2C(=O)N2Cc3cccn3Cc3ccccc32)cc1C(F)(F)F	226 to 228 °C
CCOC(=O)C(=Cc1cccc([N+](=O)[O-])c1)C(=O)CCl	108 to 111 °C
COC(=O)c1ccc(-c2nc(CCl)c(C)o2)cc1	130 to 131 °C
COc1ccc(C(CC#N)CC#N)cc1O	90 to 92 °C
CN(Cc1ccc([N+](=O)[O-])cc1)C1CCN(c2ccc(NS(C)(=O)=O)cc2)CC1	167 to 168 °C
COc1ccc(C2CCN(C(=O)CCC(=O)c3ccc4c(c3)CCNCC4)CC2)cc1	99 to 100 °C
COc1cc2c(Nc3ccc(Oc4cccnc4)cc3)c(C#N)cnc2cc1N1CCC(N2CCCC2)CC1	194 to 196 °C
COc1ccc2c(c1OC)C1(COc3cc4c(cc31)OCCO4)C(=O)N2Cc1ccc(C(F)(F)F)o1 (centres undefined)	62 to 65 °C

Structure (SMILES)	melting point
O=C(O)CCCc1cc2nc(Cl)ccc2n1S(=O)(=O)c1ccccc1OC(F)(F)F	138 °C
CCc1nc(N)nc(N)c1CCCCc1cc(Cl)c(Cl)cc1Cl	158 to 163 °C
CCCCCCCCCCCCC(Oc1ccc(NS(=O)(=O)CCCC)cc1)C(=O)O (centres undefined)	80 to 82 °C
CC(=O)OC(C(Oc1ccc(Cl)cc1)n1ccnc1)C(C)(C)C (centres undefined)	81 to 91 °C
O=C(CCCC(=O)N1CCC(c2ccc(Cl)cc2)CC1)c1ccc2c(c1)CCNCC2	112 to 113 °C
COc1cc2c(c3c1OC(C)(C)C3)C(c1cccc(N(CC(N)=O)S(C)(=O)=O)c1)=NC(C)(C)C2	190 to 191 °C
COc1cc2c(cn1)CCCC2=NO	175 to 178 °C
O=[N+]([O-])c1cc(S(=O)(=O)C(F)(F)F)c(-c2ccc(Cl)cc2)[nH]1	174 to 180 °C
N#Cc1c(O)csc1N	300 °C
CCCCOc1c(CO)n(CC(C)C)c(=O)c2ccc(OCc3ccccc3)cc12	90 to 91 °C
CC(C)(C)OC(=O)N1CCCC1(Cc1ccc(Br)cc1)C(=O)O (centres undefined)	144 °C
Cc1cccc(N=C2NCCN2)c1	115 °C
CC(C)(C)C(=O)c1ccc(C(=O)NC(=O)CCc2ccccc2)cc1	137 to 138 °C
CC1CC(N)=NN1c1ccc(Cl)cc1Cl (centres undefined)	109 to 111 °C
COc1cc(C=O)cc(OC)c1OC1OC(COC(C)=O)C(OC(C)=O)C(OC(C)=O)C1NC(C)=O (centres undefined)	222 to 225 °C
O=c1ccnc(NCCCN(Cc2cccc(Cl)c2)c2ccccn2)[nH]1	74 to 78 °C
COC(=O)c1sc(-n2cccn2)cc1O	162 to 164 °C
Cc1c(NC(=O)c2ccc(OCC3CC3)cc2)ccc2cc(CN3CCCC3)cnc12	168 °C
CC(OCc1cccnc1)C(=O)Nc1ccc(C(=O)Nc2ccccc2N)cc1 (centres undefined)	144 to 148 °C
Nc1ncnc2c1c(Br)cn2COC(O)CCO (centres undefined)	170 to 172 °C
CN(C)c1ccncc1CCCOc1ccccc1OCCCC(=O)O	106 to 108 °C
CSC(=N[N+](=O)[O-])NCc1ccc(Cl)nc1	140 to 142 °C
CCOC(=O)C1=C(C)NC(C=O)=C(C(=O)OCC)C1c1ccccc1Cl (centres undefined)	87 to 88 °C
CCN(CC)CCNC(=O)c1cc(N(C)S(C)(=O)=O)ccc1OC	48 to 50 °C

From a melting point compilation (Tetko et al.; mined from patent text by program, amines drawn as free bases though some values may be those of a salt)
